Values after ≈ are worked out from the molar mass of the structure shown. Like-named read-outs stand apart in the source and are kept apart here.
Assays:
Assay in all cases: MIC, standard agar-dilution assay
Assay type in all cases: cell-based
[1] = system: Streptococcus sp. group D 2041; conditions: Streptococcus, read-out: minimal inhibitory concentration (MIC)
[2] = system: Staphylococcus epidermidis 222; conditions: Staphylococcus epidermidis, 222, read-out: minimal inhibitory concentration (MIC)
[3] = system: Klebsiella pneumoniae X68; conditions: Klebsiella pneumoniae
[4] = system: Staphylococcus epidermidis 270; conditions: Staphylococcus epidermidis, 270; Table IV; constitutively erythromycin-resistant; read-out: minimal inhibitory concentration (MIC)
Text: (§1) In addition to excellent in vitro activity against erythromycin-sensitive bacteria, several members of this new series have shown in vitro activity against erythromycin-resistant strains. These include strains which are inducibly-resistant to erythromycin (S. aureus V41 and X400 and S. epidermidis EPI1) and even strains which are constitutively-resistant (S. epidermidis 270).

[5] = system: Haemophilus influenzae 76
[6] = system: Staphylococcus aureus X1.1; conditions: Staphylococcus aureus, X1.1, read-out: minimal inhibitory concentration (MIC)
[7] = system: Staphylococcus aureus S13E; conditions: Staphylococcus aureus, S13E, read-out: minimal inhibitory concentration (MIC)
[8] = system: Streptococcus pyogenes C203; conditions: Streptococcus pyogenes, C203, read-out: minimal inhibitory concentration (MIC)
[9] = system: Haemophilus influenzae C.L.; conditions: Haemophilus influenzae, read-out: minimal inhibitory concentration (MIC)
Escherichia coli EC14 = conditions: Escherichia coli
[10] = system: Streptococcus sp. group D X66; conditions: Streptococcus, read-out: minimal inhibitory concentration (MIC)
[11] = system: Staphylococcus aureus V41; conditions: Staphylococcus aureus, V41; Table IV; penicillin-resistant strain; inducibly erythromycin-resistant; read-out: minimal inhibitory concentration (MIC)
Text: as §1

[12] = system: Staphylococcus aureus X400; conditions: Staphylococcus aureus, X400; Table IV; methicillin-resistant strain; inducibly erythromycin-resistant; read-out: minimal inhibitory concentration (MIC)
Text: as §1

[13] = system: Streptococcus pneumoniae Park I; conditions: Streptococcus pneumoniae, read-out: minimal inhibitory concentration (MIC)
[14] = X68, Table IV, agar dilution, read-out: minimal inhibitory concentration (MIC)
[15] = Haemophilus influenzae, 76, read-out: minimal inhibitory concentration (MIC)
[16] = EC14, Table IV, agar dilution, read-out: minimal inhibitory concentration (MIC)
[17] = Haemophilus influenzae, 76, Table IV, ampicillin-resistant strain, read-out: minimal inhibitory concentration (MIC)
[18] = EC14, read-out: minimal inhibitory concentration (MIC)
[19] = X68, read-out: minimal inhibitory concentration (MIC)

Row | SMILES | MIC [1] [µg/mL] | MIC [2] [µg/mL] | MIC [3, 14] [µg/mL] | MIC [4] [µg/mL] | MIC [5, 15] [µg/mL] | MIC [6] [µg/mL] | MIC [7] [µg/mL] | MIC [8] [µg/mL] | MIC [9] [µg/mL] | MIC (Escherichia coli EC14; [16]) [µg/mL] | MIC [10] [µg/mL] | MIC [11] [µg/mL] | MIC [12] [µg/mL] | MIC [5, 17] [µg/mL] | MIC [13] [µg/mL] | MIC ([9]; Table IV, ampicillin-sensitive strain) [µg/mL] | MIC (Escherichia coli EC14; [18]) [µg/mL] | MIC [3, 19] [µg/mL]
1 | CC[C@H]1OC(=O)[C@H](C)[C@@H](O[C@H]2C[C@@](C)(OC)[C@@H](O)[C@H](C)O2)[C@H](C)[C@@H](O[C@@H]2O[C@H](C)C[C@H](N(C)C)[C@H]2O)[C@](C)(O)C[C@@H](C)[C@H](NCC2CCCCCCC2)[C@H](C)[C@@H](O)[C@]1(C)O [Compound 16, 9-Deoxo-9-[(cyclooctylmethyl)amino]erythromycin] | 1 (≈ 1.16 µM) | 0.25 (≈ 0.291 µM) | > 128 | > 128 | 1 (≈ 1.16 µM) | 0.5 (≈ 0.582 µM) |  |  |  |  |  |  |  |  |  |  |  | 
2 | C=CCCCCCCCCCN[C@@H]1[C@H](C)[C@@H](O)[C@](C)(O)[C@@H](CC)OC(=O)[C@H](C)[C@@H](O[C@H]2C[C@@](C)(OC)[C@@H](O)[C@H](C)O2)[C@H](C)[C@@H](O[C@@H]2O[C@H](C)C[C@H](N(C)C)[C@H]2O)[C@](C)(O)C[C@H]1C [Compound 28, 9-Deoxo-9-[(undec-10-enyl)amino]erythromycin] | 2 (≈ 2.25 µM) | 1 (≈ 1.13 µM) | > 128 | 32 (≈ 36.1 µM) |  | 2 (≈ 2.25 µM) | 2 (≈ 2.25 µM) | 1 (≈ 1.13 µM) | 2 (≈ 2.25 µM) | > 128 | 0.125 (≈ 0.141 µM) | 8 (≈ 9.02 µM) | 8 (≈ 9.02 µM) | 2 (≈ 2.25 µM) |  |  |  | 
3 | CCCCCCCCCCN[C@@H]1[C@H](C)[C@@H](O)[C@](C)(O)[C@@H](CC)OC(=O)[C@H](C)[C@@H](O[C@H]2C[C@@](C)(OC)[C@@H](O)[C@H](C)O2)[C@H](C)[C@@H](O[C@@H]2O[C@H](C)C[C@H](N(C)C)[C@H]2O)[C@](C)(O)C[C@H]1C [Compound 9, 9-Deoxo-9-(n-decylamino)erythromycin] | 2 (≈ 2.29 µM) | 1 (≈ 1.14 µM) | > 128 |  | 1 (≈ 1.14 µM) | 1 (≈ 1.14 µM) |  | 0.015 (≈ 0.0171 µM) | 2 (≈ 2.29 µM) | > 128 | 0.25 (≈ 0.286 µM) |  |  |  | 0.015 (≈ 0.0171 µM) |  |  | 
4 | CC[C@H]1OC(=O)[C@H](C)[C@@H](O[C@H]2C[C@@](C)(OC)[C@@H](O)[C@H](C)O2)[C@H](C)[C@@H](O[C@@H]2O[C@H](C)C[C@H](N(C)C)[C@H]2O)[C@](C)(O)C[C@@H](C)[C@H](NCCC2=C(C)CCCC2(C)C)[C@H](C)[C@@H](O)[C@]1(C)O [Compound 30, 9-Deoxo-9-[[2-(2,6,6-trimethyl-1-cyclohexen-1-yl)ethyl]amino]erythromycin] | 2 (≈ 2.26 µM) | 1 (≈ 1.13 µM) | > 128 | 64 (≈ 72.3 µM) |  | 1 (≈ 1.13 µM) | 2 (≈ 2.26 µM) | 0.5 (≈ 0.565 µM) |  | > 128 | 0.125 (≈ 0.141 µM) | 16 (≈ 18.1 µM) | 32 (≈ 36.1 µM) | 4 (≈ 4.52 µM) |  | 4 (≈ 4.52 µM) |  | 
5 | CC[C@H]1OC(=O)[C@H](C)[C@@H](O[C@H]2C[C@@](C)(OC)[C@@H](O)[C@H](C)O2)[C@H](C)[C@@H](O[C@@H]2O[C@H](C)C[C@H](N(C)C)[C@H]2O)[C@](C)(O)C[C@@H](C)[C@H](NCCCSC)[C@H](C)[C@@H](O)[C@]1(C)O [Compound 26, 9-Deoxo-9-[[3-(methylthio)propyl]amino]erythromycin] |  |  | > 128 | > 128 |  |  |  | 0.015 (≈ 0.0182 µM) |  |  | 0.25 (≈ 0.304 µM) | > 128 | > 128 |  | 0.015 (≈ 0.0182 µM) |  | 128 (≈ 156 µM) | 
6 | CCCCCCCCCCCCN[C@@H]1[C@H](C)[C@@H](O)[C@](C)(O)[C@@H](CC)OC(=O)[C@H](C)[C@@H](O[C@H]2C[C@@](C)(OC)[C@@H](O)[C@H](C)O2)[C@H](C)[C@@H](O[C@@H]2O[C@H](C)C[C@H](N(C)C)[C@H]2O)[C@](C)(O)C[C@H]1C [Compound 10, 9-Deoxo-9-(n-dodecylamino)erythromycin] |  |  | > 128 |  |  |  |  |  |  | > 128 | 1 (≈ 1.11 µM) |  |  |  | 0.06 (≈ 0.0664 µM) |  |  | 
7 | CCOC(=O)C1CC1CN[C@@H]1[C@H](C)[C@@H](O)[C@](C)(O)[C@@H](CC)OC(=O)[C@H](C)[C@@H](O[C@H]2C[C@@](C)(OC)[C@@H](O)[C@H](C)O2)[C@H](C)[C@@H](O[C@@H]2O[C@H](C)C[C@H](N(C)C)[C@H]2O)[C@](C)(O)C[C@H]1C (stereo partly drawn) [Compound 27, 9-Deoxo-9-[[[2-(ethoxycarbonyl)cyclopropyl]methyl]amino]erythromycin] | 2 (≈ 2.32 µM) | 0.5 (≈ 0.581 µM) |  | > 128 |  | 1 (≈ 1.16 µM) | 1 (≈ 1.16 µM) | 0.5 (≈ 0.581 µM) | 2 (≈ 2.32 µM) |  | 0.125 (≈ 0.145 µM) | > 128 | > 128 | 2 (≈ 2.32 µM) |  |  | 128 (≈ 149 µM) | 128 (≈ 149 µM)
8 | CC[C@H]1OC(=O)[C@H](C)[C@@H](O[C@H]2C[C@@](C)(OC)[C@@H](O)[C@H](C)O2)[C@H](C)[C@@H](O[C@@H]2O[C@H](C)C[C@H](N(C)C)[C@H]2O)[C@](C)(O)C[C@@H](C)[C@H](NC)[C@H](C)[C@@H](O)[C@]1(C)O [Compound 1, 9-Deoxo-9-(methylamino)erythromycin] | 1 (≈ 1.34 µM) | 0.25 (≈ 0.334 µM) |  | > 128 | 1 (≈ 1.34 µM) | 1 (≈ 1.34 µM) |  | 0.06 (≈ 0.0801 µM) |  |  | 0.125 (≈ 0.167 µM) |  |  |  |  |  |  | 
9 | CCCCN[C@@H]1[C@H](C)[C@@H](O)[C@](C)(O)[C@@H](CC)OC(=O)[C@H](C)[C@@H](O[C@H]2C[C@@](C)(OC)[C@@H](O)[C@H](C)O2)[C@H](C)[C@@H](O[C@@H]2O[C@H](C)C[C@H](N(C)C)[C@H]2O)[C@](C)(O)C[C@H]1C [Compound 4, 9-Deoxo-9-(n-butylamino)erythromycin] | 1 (≈ 1.26 µM) | 0.25 (≈ 0.316 µM) |  | > 128 | 1 (≈ 1.26 µM) | 0.25 (≈ 0.316 µM) |  | 0.06 (≈ 0.0758 µM) | 1 (≈ 1.26 µM) |  | 0.125 (≈ 0.158 µM) | > 128 | > 128 |  | 0.015 (≈ 0.019 µM) |  |  | 
10 | CCCCCN[C@@H]1[C@H](C)[C@@H](O)[C@](C)(O)[C@@H](CC)OC(=O)[C@H](C)[C@@H](O[C@H]2C[C@@](C)(OC)[C@@H](O)[C@H](C)O2)[C@H](C)[C@@H](O[C@@H]2O[C@H](C)C[C@H](N(C)C)[C@H]2O)[C@](C)(O)C[C@H]1C [Compound 5, 9-Deoxo-9-(n-pentylamino)erythromycin] |  |  |  | > 128 |  |  |  | 0.06 (≈ 0.0745 µM) |  |  | 0.125 (≈ 0.155 µM) | > 128 | > 128 |  | 0.015 (≈ 0.0186 µM) |  | 128 (≈ 159 µM) | 128 (≈ 159 µM)
11 | CC[C@H]1OC(=O)[C@H](C)[C@@H](O[C@H]2C[C@@](C)(OC)[C@@H](O)[C@H](C)O2)[C@H](C)[C@@H](O[C@@H]2O[C@H](C)C[C@H](N(C)C)[C@H]2O)[C@](C)(O)C[C@@H](C)[C@H](NCCCc2ccccc2)[C@H](C)[C@@H](O)[C@]1(C)O [Compound 17, (9S)-9-Deoxo-9-[(3-phenylpropyl)amino]erythromycin] | 2 (≈ 2.34 µM) | 0.5 (≈ 0.586 µM) | > 128 | > 128 |  | 1 (≈ 1.17 µM) |  | 0.015 (≈ 0.0176 µM) | 2 (≈ 2.34 µM) |  | 0.06 (≈ 0.0703 µM) | > 128 | > 128 |  | 0.015 (≈ 0.0176 µM) |  | 128 (≈ 150 µM) | 

Source: patent publication US5110800A, “Derivatives of erythromycylamine” (Eli Lilly and Company, priority 1989, dated 1992)
